Patent US20080004290A1, “Anti-Cancer Agents” (THE UNIVERSITY OF QUEENSLAND, priority 2003, published 2008)
Where two headings read alike, the source gives them in different places.

Columns and labels:
MM96L melanoma cells = assay: Cell survival assay (clonogenic survival, SRB); format: cell-based, human; conditions: for IC50: SRB
Method in brief: (§1)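 Cells (5×10^3/well, RPMI 1640 with 10% FCS) treated 24 h with compound at 0.01-10 μg/mL, then washed and grown 72 h drug-free at 37 °C, 5% CO2. Survival read by SRB staining after methylated-spirit fixation, absorbance 564 nm.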

[1] = test system: NFF, neonatal foreskin fibroblasts; assay: Cell survival assay (clonogenic survival, SRB), normal cells; format: cell-based, human; conditions: SRB
Method in brief: as §1

[2] = Table 8, 24 hours with compound, further growth, read-out: IC50 (μM) MM96
[3] = Table 8, IC50 (NFF)/IC50 (MM96L)
[4] = Table 8, 24 hours with compound, further growth, read-out: IC50 (μM) NFF
[5] = Table 6, 24 hours with compound, further growth, read-out: IC50 (μM) MM96L
[6] = Table 6, IC50 (NFF)/IC50 (MM96L)
[7] = Table 6, 24 hours with compound, further growth, read-out: IC50 (μM) NFF
[8] = Table 5, 24 hours with compound, further growth, read-out: IC50 MM96L
[9] = Table 5, Selectivity Index = IC50 (NFF)/IC50 (MM96L)
[10] = Table 5, 24 hours with compound, further growth, read-out: IC50 NFF

For `CN(C)c1ccc(C(=O)N[C@@H](CSCCCC(=O)NO)C(=O)NCc2ccc(C(=O)Nc3cccc4c3CCCC4)cc2)cc1` [Example 118], the IC50 (MM96L melanoma cells; [2]) was 1.17 µM, the Selectivity (MM96L melanoma cells; [3]) was 3.2 and the IC50 [1, 4] was 3.78 µM.
In the case of `CN(C)c1ccc(C(=O)N[C@@H](CSCCCC(=O)NO)C(=O)NCc2ccc(C(=O)Nc3ccc4cn[nH]c4c3)cc2)cc1` [Example 114], the IC50 (MM96L melanoma cells; [2]) is reported as 1.5 µM, the Selectivity (MM96L melanoma cells; [3]) is reported as 8.1 and the IC50 [1, 4] is reported as 12.2 µM.
In the case of `O=C(CCCCC[C@H](NC(=O)c1cc2ccccc2[nH]1)C(=O)NC1(Cc2ccccc2)CCCC1)NO` [Example 129], the IC50 (MM96L melanoma cells; Homo sapiens, MM96L, MM96L melanoma, 24 h with compound, further 72 h growth, read-out: IC50 (uM) MM96L) is reported as 0.9 ± 0.2 µM, the “SI (Selectivity Index = IC50 (NFF)/IC50 (MM96L))” value (MM96L melanoma cells; NFF vs MM96L) is reported as 1.7 and the IC50 ([1]; Homo sapiens, Fibroblast, NFF normal fibroblasts, 24 h with compound, further 72 h growth, read-out: IC50 (uM) NFF) is reported as 1.6 ± 0.2 µM.
`CN(C)c1ccc(C(=O)N[C@@H](CSCCCC(=O)NO)C(=O)NC2(Cc3ccccc3)CCCC2)cc1` [Example 87] gave an IC50 (MM96L melanoma cells; [5]) of 0.6 ± 0.1 µM, a Selectivity (MM96L melanoma cells; [6]) of 7.0 and an IC50 [1, 7] of 4.2 ± 0.5 µM.
With `CN(C)c1ccc(C(=O)N[C@@H](CSCCCC(=O)NO)C(=O)NCc2ccncc2)cc1` [Example 80] the IC50 (MM96L melanoma cells; Homo sapiens, MM96L, 24 h, Table 6, 24 hours with compound, further growth, read-out: IC50 (μM) MM96L) was 2.2 ± 0.3 µM, the Selectivity (MM96L melanoma cells; [6]) was 6.2 and the IC50 ([1]; Homo sapiens, Fibroblast, 24 h, Table 6, 24 hours with compound, further growth, read-out: IC50 (μM) NFF) was 14 ± 1 µM.
In the case of `O=C(CCCSC[C@H](NC(=O)c1cccc(O)c1O)C(=O)NCc1ccccc1)NO` [Example 31], the IC50 (MM96L melanoma cells; [8]) is reported as 32 ± 3 µM, the Selectivity (MM96L melanoma cells; [9]) is reported as 0.14 and the IC50 [1, 10] is reported as 4.5 ± 0.6 µM.
Work on `CC(C)CCC(=O)N[C@@H](CSCCCC(=O)NO)C(=O)NCc1ccccc1` [Example 50] yielded an IC50 (MM96L melanoma cells; [8]) of 7 ± 2 µM, a Selectivity (MM96L melanoma cells; [9]) of 3.6 and an IC50 [1, 10] of 25 ± 4 µM.
`CN(C)c1ccc(C(=O)N[C@@H](CSCCCC(=O)NO)C(=O)N[C@H](c2ccccc2)[C@@H](O)c2ccccc2)cc1` [Example 76] showed an IC50 (MM96L melanoma cells; [5]) of 2.1 ± 0.2 µM, a Selectivity (MM96L melanoma cells; [6]) of 4.3 and an IC50 [1, 7] of 9 ± 3 µM.
